# Data from US9112158B1, “Asymmetric styrene derivatives having carbazole and aniline and organic light emitting diode using the same” (National Tsing Hua University, priority 2014, dated 2015).
# Assay: solubility of the compound in toluene
# Type: physicochemical
compound,measurement,value
"C(=C\c1ccc(N(c2ccccc2)c2cccc3ccccc23)cc1)/c1ccc(-c2ccc(/C=C/c3ccc4c(c3)c3ccccc3n4-c3ccccc3)cc2)cc1 [PCzNA, N-phenyl-N-{4-[(E)-2-(4-{4-[(E)-2-(9-phenyl-9H-carbazol-3-yl)ethenyl]phenyl}phenyl)ethenyl]phenyl}naphthalen-1-amine]",Solubility,>1 wt %
"C(=C\c1ccc(N(c2ccccc2)c2ccccc2)cc1)/c1ccc(-c2ccc(/C=C/c3ccc4c(c3)c3ccccc3n4-c3ccccc3)cc2)cc1 [PCzDPA, N,N-diphenyl-4-[(E)-2-(4-{4-[(E)-2-(9-phenyl-9H-carbazol-3-yl)ethenyl]phenyl}phenyl)ethenyl]aniline]",Solubility,>1 wt %
